Results: patent publication US8409550B2, “Method for treating skin with retinoids and retinoid boosters” (Unilever Home & Personal Care, USA, Division of Conopco, …, priority 2000, dated 2013)
Several values for one entry are separate records, joined by “and”; a condition that tells them apart may be missing. Identical values can stand only once. Like-named read-outs stand apart in the source and are kept apart here.

Assays:
ARAT = assay: Assay for ARAT activity, bovine RPE microsomes (to identify B1); type: biochemical; details: for % Inhibition ARAT (100 jm): compound 100 jm; for % Inhibition ARAT (10 jm): compound 10 jm
LRAT = target: T1, LRAT (Bos taurus, UniProt Q9BGL2); assay: Assay for LRAT activity, bovine RPE microsomes (to identify B1); type: biochemical; details: for % Inhibition LRAT (100 jm): compound 100 jm; for % Inhibition LRAT (10 jm): compound 10 jm
T1 construct: followed by approximately 15 μg of RPE microsomal protein; tissue W. L. Lawson Co., Lincoln, Nebr., USA (eyecups); host or cells: bovine retinal pigment epithelium microsomes
T1 sequence (Q9BGL2 1-230): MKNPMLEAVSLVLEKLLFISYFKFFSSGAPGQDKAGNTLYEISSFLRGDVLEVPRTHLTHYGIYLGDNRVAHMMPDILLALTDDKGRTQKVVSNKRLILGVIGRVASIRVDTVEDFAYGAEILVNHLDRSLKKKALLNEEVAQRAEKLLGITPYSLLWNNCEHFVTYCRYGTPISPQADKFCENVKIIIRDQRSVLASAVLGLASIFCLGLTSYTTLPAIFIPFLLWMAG

Retinal Reductase = assay: Assay for retinal reductase activity, rat liver microsomes (to identify B3); type: biochemical; details: test compound final 100 μM
[1] = test system: transglutaminase (TGase I); assay: Transglutaminase (Tgase) ELISA assay in cultured keratinocytes with retinol and boosters; type: cell-based, human; details: for TG as % C Compd 2 / TG as % C, Compd 3 / TG as % C Compd 1: concentration one log below IC20; for TG as % C, Compd 3: Compound 3 alone; for IC20: IC20 (80% of control)
[2] = test system: cytochrome P450 dependent retinoic acid oxidation; assay: Assay for NADPH dependent retinoic acid oxidation, rat liver microsomes (to identify B5); details: for % Inhibition Retinoic Acid (10 μM): compound 10 μM; for % Inhibition Retinoic Acid (100 μM): compound 100 μM
[3] = Compound 2 alone, in the presence of 10^-7M retinol
[4] = in the presence of 10^-7M retinol
[5] = compound tested individually in the presence of 10^-7 M retinol
[6] = Tgase inhibition, compound tested individually in the presence of 10^-7 M retinol, read-out: IC50
[7] = B1 table, booster concentration which with 10^−7 M retinol inhibits TGase by 50%, same values in the 19th table (Molar), read-out: Overall TG (IC 50)
[8] = Compound 1 alone, in the presence of 10^-7M retinol

## Glycerol-PCA-Oleate
ARAT
  % Inhibition ARAT (100 jm): 41% +/− 6
LRAT
  % Inhibition LRAT (100 jm): 58% +/− 2

## CC1(C)[C@@H](O)CC[C@]2(C)[C@H]3C(=O)C=C4[C@@H]5C[C@@](C)(C(=O)O)CC[C@]5(C)CC[C@@]4(C)[C@]3(C)CC[C@@H]12 [Glycyrretinic Acid, Glycyrrhetinic Acid]
Retinal Reductase
  % Inhibition Retinal Reductase: 38% +/− 1
[1]; [3]
  TG as % C Compd 2: 91 % C
[1]; [4]
  TG as % C, Compd 3: 91 % C
[1]; [5]
  IC20: 5.96 µM
[1]; [6]
  IC50: 8.64 µM
[1]; compound 2 alone, with retinol
  TG as % C Compd 2: 92 % C

## O=c1c(O)c(-c2ccc(O)c(O)c2)oc2cc(O)cc(O)c12 [Quercetin]
[1]; [4]
  TG as % C, Compd 3: 92 % C
[1]; [5]
  IC20: 51.1 µM
[2]
  % Inhibition Retinoic Acid (10 μM): 40%
  % Inhibition Retinoic Acid (100 μM): 74%

## CCCCC/C=C\C/C=C\CCCCCCCC(=O)O [Linoleic Acid]
Retinal Reductase
  % Inhibition Retinal Reductase: 62% +/− 2
[1]; [4]
  TG as % C, Compd 3: 11 % C
[1]; [5]
  IC20: 89.5 µM

## Hexanoyl Sphingosine
LRAT
  % Inhibition LRAT (100 jm): 37% +/− 9
[1]; [7]
  IC50: 99.9 µM
[1]; [8]
  TG as % C Compd 1: 104 % C
[1]; [5]
  IC20: 69.4 µM
[1]; [6]
  IC50: 99.9 µM
[1]; compound 1 alone, with retinol
  TG as % C Compd 1: 122 % C and 99.3 % C and 99 % C and 109 % C

## Brahmanol
ARAT
  % Inhibition ARAT (100 jm): 70%
LRAT
  % Inhibition LRAT (100 jm): 75%

## Clc1ccc(COC(Cn2ccnc2)c2ccc(Cl)cc2Cl)cc1 (centres unmarked) [Econazole]
[2]
  % Inhibition Retinoic Acid (10 μM): 88%
  % Inhibition Retinoic Acid (100 μM): 100%

## CCCCCCCCCCCCCC(=O)O [Myristic Acid]
Retinal Reductase
  % Inhibition Retinal Reductase: 26%
[1]; [8]
  TG as % C Compd 1: 79 % C
[1]; [5]
  IC20: 10.5 µM
[1]; compound 1 alone, with retinol
  TG as % C Compd 1: 110 % C

## Cocoyl Monoethanolamide
ARAT
  % Inhibition ARAT (100 jm): 13%
LRAT
  % Inhibition LRAT (100 jm): 34%

## CC(C)(C(=O)c1cccnc1)c1cccnc1 [2-Methyl-1,2-di-3-Pyridyl-1-Propane]
[2]
  % Inhibition Retinoic Acid (100 μM): 47%

## CC(=O)N1CCN(c2ccc(OCC3COC(Cn4ccnc4)(c4ccc(Cl)cc4Cl)O3)cc2)CC1 (centres unmarked) [Ketoconazole, reference compound]
[1]; [3]
  TG as % C Compd 2: 85 % C
[1]; [5]
  IC20: 0.0552 µM
[2]
  % Inhibition Retinoic Acid (10 μM): 84%
  % Inhibition Retinoic Acid (100 μM): 84%

## Santalone
ARAT
  % Inhibition ARAT (100 jm): 23%
LRAT
  % Inhibition LRAT (100 jm): 12%

## CC=CC(=O)C1CCC(C)(C)C=C1C (centres unmarked) [Isodamascone]
ARAT
  % Inhibition ARAT (100 jm): 80%
LRAT
  % Inhibition LRAT (100 jm): 92%

## Isobutyl Ionone
ARAT
  % Inhibition ARAT (100 jm): 8%
LRAT
  % Inhibition LRAT (100 jm): 45%

## Clc1ccc(COC(Cn2ccnc2)c2ccc(Cl)cc2Cl)c(Cl)c1 (centres unmarked) [Miconazole, reference compound]
[1]; [3]
  TG as % C Compd 2: 92 % C
[1]; [4]
  TG as % C, Compd 3: 82 % C
[1]; [5]
  IC20: 0.0842 µM
[2]
  % Inhibition Retinoic Acid (10 μM): 74%
  % Inhibition Retinoic Acid (100 μM): 86%

## Alpha-Methyl Ionone
ARAT
  % Inhibition ARAT (100 jm): 67%
LRAT
  % Inhibition LRAT (100 jm): 77%

## CC(C)(C)C(=O)C(Oc1ccc(Cl)cc1)n1ccnc1 (centres unmarked) [Climbazole, reference compound]
[1]; [3]
  TG as % C Compd 2: 84 % C
[1]; [4]
  TG as % C, Compd 3: 84 % C
[1]; [5]
  IC20: 0.245 µM
[2]
  % Inhibition Retinoic Acid (10 μM): 80%
  % Inhibition Retinoic Acid (100 μM): 92%

## Santanol
ARAT
  % Inhibition ARAT (100 jm): 15%
LRAT
  % Inhibition LRAT (100 jm): 43%

## Isocyclogeraniol
ARAT
  % Inhibition ARAT (100 jm): 18%
LRAT
  % Inhibition LRAT (100 jm): 16%

## c1ccc(-c2ccc(C(c3ccccc3)n3ccnc3)cc2)cc1 (centres unmarked) [Bifonazole]
[2]
  % Inhibition Retinoic Acid (10 μM): 89%
  % Inhibition Retinoic Acid (100 μM): 100%

## CCCCCCCC(=O)OCC(COP(=O)(O)OCCN)OC(=O)CCCCCCC (centres unmarked) [Dioctylphosphatidyl Ethanolamine]
ARAT
  % Inhibition ARAT (10 jm): 23%
LRAT
  % Inhibition LRAT (10 jm): 0%
  % Inhibition LRAT (100 jm): 17% +/− 17

## C/C=C\C(=O)C1C(C)=CCCC1(C)C (stereo not drawn) [Alpha-Damascone]
LRAT
  % Inhibition LRAT (10 jm): 87% +/− 6
  % Inhibition LRAT (100 jm): 98% +/− 1
[1]; [7]
  IC50: 335 µM
[1]; [5]
  IC20: 169 µM
[1]; [6]
  IC50: 335 µM
[1]; compound 1 alone, with retinol, listed as Alpha-demascone
  TG as % C Compd 1: 95 % C and 112 % C

## C/C=C/C(=O)C1=C(C)CCCC1(C)C [Beta-Damascone]
LRAT
  % Inhibition LRAT (10 jm): 52%
  % Inhibition LRAT (100 jm): 92%

## CC(=O)CCC1C(C)=CCCC1(C)C (stereo not drawn) [Dihydro Alpha-Ionone]
ARAT
  % Inhibition ARAT (100 jm): 13%
LRAT
  % Inhibition LRAT (100 jm): 18%

## Ethyl Saffranate
LRAT
  % Inhibition LRAT (100 jm): 49%

## CC(=O)/C=C/C=C(\C)CCC=C(C)C [Pseudoionone]
LRAT
  % Inhibition LRAT (100 jm): 37%

## COc1cc(C=O)ccc1O [Vanillin]
Retinal Reductase
  % Inhibition Retinal Reductase: 6%
[1]; [4]
  TG as % C, Compd 3: 134 % C
[1]; [5]
  IC20: 8470 µM

## CCCCCCCC/C=C\CCCCCCCC1=NCCN1CCO [Oleyl Hydroxyethylimidazoline]
[1]; B5 table, with 10^−7 M retinol, read-out: Overall TG (IC 50)
  IC50: 30.2 µM
[1]; [4]
  TG as % C, Compd 3: 76 % C
[1]; [5]
  IC20: 5.65 µM
[1]; [6]
  IC50: 30.2 µM
[1]; compound 2 alone, with retinol, listed as Oleoyl hydorxyethylimdazoline
  TG as % C Compd 2: 92 % C
[1]; compound 2 alone, with retinol, listed as Oleoyl hydroxyethylimiazoline
  TG as % C Compd 2: 73 % C
[2]
  % Inhibition Retinoic Acid (10 μM): 54%
  % Inhibition Retinoic Acid (100 μM): 80%

## CCCCCCCCCCCCCCCCCCCC(=O)O [Arachidic Acid]
Retinal Reductase
  % Inhibition Retinal Reductase: 20%

## Acetyl Sphingosine
ARAT
  % Inhibition ARAT (10 jm): 19% +/− 12
  % Inhibition ARAT (100 jm): 62% +/− 11
LRAT
  % Inhibition LRAT (10 jm): 10% +/− 10
  % Inhibition LRAT (100 jm): 50% +/− 18
[1]; [7]
  IC50: 6.78 µM
[1]; [4]
  TG as % C, Compd 3: 99 % C
[1]; [5]
  IC20: 5.15 µM
[1]; [6]
  IC50: 6.78 µM

## CCCCC/C=C\C/C=C\C/C=C\C/C=C\CCCC(=O)O [Arachidonic Acid]
Retinal Reductase
  % Inhibition Retinal Reductase: 49%

## CCCCC/C=C\C/C=C\CCCCCCCC(=O)N(CCO)CCO [Linoleoyl Diethanolamide]
LRAT
  % Inhibition LRAT (10 jm): 11% +/− 9
  % Inhibition LRAT (100 jm): 51% +/− 15
[1]; % (booster+retinol inhibition/control inhibition) − % (ROH inhibition/control inhibition)
  % Inhibition Overall TG (—ROH/RE): 59%

## CC1(C)[C@@H](OC(=O)CCC(=O)O)CC[C@]2(C)[C@H]3C(=O)C=C4[C@@H]5C[C@@](C)(C(=O)O)CC[C@]5(C)CC[C@@]4(C)[C@]3(C)CC[C@@H]12 [Carbenoxolone, reference compound]
Retinal Reductase
  % Inhibition Retinal Reductase: 26% +/− 2
[1]; [4]
  TG as % C, Compd 3: 88 % C
[1]; [5]
  IC20: 0.2 µM
[1]; compound 2 alone, with retinol
  TG as % C Compd 2: 164 % C

## Damascenone
LRAT
  % Inhibition LRAT (10 jm): 29%
  % Inhibition LRAT (100 jm): 79%

## Clc1ccccc1C(c1ccccc1)(c1ccccc1)n1ccnc1 [Clotrimazole, reference compound]
[1]; [4]
  TG as % C, Compd 3: 79 % C
[2]
  % Inhibition Retinoic Acid (10 μM): 76%
